In paper PMC11088877, “AMP-activated protein kinase can be allosterically activated by ADP but AMP remains the key activating ligand” (Biochemical Journal, 2024):
pEC50, pIC50: −log10 of the molar value. Values joined by “and” are separate entries in the source; they are usually repeats but may differ in a detail not shown here. Equal entries are not always repeated. Where two headings read alike, the source gives them in different places.

Experiments:
Format in all cases: biochemical
[1] = target: T1, human α2β2γ1 complex (WT) (Homo sapiens, UniProt P54619+P54646); test: Allosteric activation of WT human α2β2γ1 AMPK complex by AMP and ADP
T1 construct: made in house; host or cells: Escherichia coli
Source text: To study allosteric activation with a more well-defined AMPK complex, and to study the effects of mutations in individual adenine nucleotide-binding sites on the γ subunit, we expressed a human α2β2γ1 complex in Escherichia coli and purified it utilizing the polyhistidine tag at the N-terminus of the α2 subunit. […] However, it had not been co-expressed with an N-myristoyl transferase so would not have been N-myristoylated on the β2 subunit. The complex was expressed not only with the WT γ1 sequence but also with mutations affecting hydrophobic residues previously shown to be involved in binding of the adenine moieties of nucleotides at CBS1 (L129D/V130D), CBS3 (V276G/L277G) and CBS4 (I312G). All four complexes co-purified as heterotrimeric 1:1:1 complexes as expected, and were phosphorylated and activated equally well either by CaMKK2 or the LKB1: STRADα:MO25α complex (Supplementary Figure S2). For the studies described below we phosphorylated Thr172 using a GST-tagged CaMKK2 and repurified AMPK using size exclusion chromatography and a glutathione-Sepharose column, which remove CaMKK2.
Figure 4. Allosteric activation of WT and mutant human α2β2γ1 AMPK complex by AMP and ADP at three different concentrations of ATP. The α2β2γ1 complex was phosphorylated on Thr172 prior to assay using CaMKK2. The γ1 subunit was either (A/E): WT; (B/F): a CBS1 mutant (L129D/V130D); (C/G): a CBS3 mutant (V276G/L277G); (D/H): a CBS4 mutant (I312G). Results are means of duplicate assays ± SD; error bars are not shown if they were smaller than the symbols used for mean values. Assays and curve fitting were as in Figure 1 at either 0.2 mM (left panels) or 5 mM (right panels) ATP. Best-fit values for all parameters used to generate the curves are listed in Supplementary Table S1.
Sources of antibodies were as described: pThr172 (AMPK-α: Cell Signaling Technologies, Danvers, MA, U.S.A., Cat# 2535), AMPK-α2 [22]. Rat liver AMPK was purified as described previously. Plasmid encoding human (His)6-tagged AMPK (α2β2γ1, bacterially expressed) generated as in [23], was a gift from AstraZeneca, Cambridge, U.K. The L129D/V130D (CBS1), V276G/L277G (CBS3) and I312G (CBS4) mutations in the α2β2γ1 complex were generated using the Quikchange II site-directed mutagenesis kit (Agilent Technologies) and confirmed by DNA sequencing. Human GST-tagged α2 kinase domain (1–310), LKB1:STRAD-α:MO25-α complexes, GST-tagged CaMKK2 [26], and PPM1A (PP2Cα) were produced as described. Bacterially expressed heterotrimers were activated by phosphorylation of Thr172 by GST-tagged CaMKK2 in the presence of ATP, and CaMKK2 was subsequently removed by passage through glutathione-Sepharose. Human GST-tagged α2 kinase domain was activated in a similar manner except that human (His)6-tagged LKB1:STRAD-α:MO25-α complex was used and removed after activation via passage through a His-Trap column. Recombinant human 5′-nucleotidase, CD73, Cat # 5795-EN-01, was from R&D systems (Minneapolis, MN, U.S.A.).
AMPK assays measured the transfer of radioactivity from [γ-^33P]ATP to a peptide substrate, which was separated from unreacted ATP by binding to P81 paper. This assay was described previously except that we used [γ-^33P] rather than [γ-^32P]ATP. In some assays (specified in Figure legends) the concentration of ATP was increased from 0.2 to 1 or 5 mM ATP, with MgCl2 concentrations maintained at a constant 4.8 mM excess above the concentration of ATP [19]. Where allosteric activation by AMP or ADP was being studied, we used the SAMS peptide as substrate. For all other assays the AMARA peptide was used.

[2] = target: T2, phosphorylated human α2β2γ1 complex (WT) (Homo sapiens, UniProt P54619+P54646); test: AMPK inactivation and Thr172 dephosphorylation by PP2Cα (PPM1A), WT; settings: 300 µM nucleotide, absence of ATP
T2 construct: made in house; host or cells: Escherichia coli
Method: (§1) The relative roles of the three CBS sites in the other two mechanisms of activation of AMPK by AMP or ADP, i.e. promotion of Thr172 phosphorylation by LKB1, and protection against Thr172 dephosphorylation by protein phosphatases, have not been examined previously. As expected, incubation of the α2β2γ1 AMPK complex with a fixed, limiting amount of purified LKB1:STRADα:MO25α complex in the presence of 200 µM Mg.ATP^2− caused a large degree of activation (Figure 5A) and phosphorylation (Figure 5B) of AMPK (unphosphorylated α2β2γ1 complex), which were stimulated more than 2-fold by 300 µM AMP and 1.6-fold by 300 µM ADP.
(§2) Figure 6. Effects of AMP or ADP on AMPK inactivation and Thr172 dephosphorylation by PP2Cα (PPM1A). Human α2β2γ1 complexes (WT, or with L129D/V130D, V276G/L277G or I312G mutations affecting CBS1, CBS3 or CBS4 respectively), all phosphorylated on Thr172, were incubated with a fixed concentration of PP2Cα (PPM1A) in the presence or absence of AMP or ADP (both 300 µM) as described in the Materials and methods section. After the incubation, aliquots were withdrawn for (A) AMPK assay or (B) Western blots. […] For (B), due to a limit on the number of lanes that could be run on one gel, single replicates from the triplicate assays were analysed. […]

[3] = target: T3, human α2β2γ1 complex, CBS3 mutant (V276G/L277G) (Homo sapiens, UniProt P54619+P54646, L277G/V276G); test: AMPK inactivation and Thr172 dephosphorylation by PPM1A, CBS3 mutant; settings: 300 µM nucleotide, absence of ATP
T3 construct: made in house; host or cells: Escherichia coli
Method: as §1, §2

[4] = target: T4, human α2β2γ1 complex, CBS4 mutant (I312G) (Homo sapiens, UniProt P54619+P54646, I312G); test: AMPK inactivation and Thr172 dephosphorylation by PPM1A, CBS4 mutant; settings: 300 µM nucleotide, absence of ATP
T4 construct: made in house; host or cells: Escherichia coli
Method: as §1, §2

T1 sequence (P54619 whole entry): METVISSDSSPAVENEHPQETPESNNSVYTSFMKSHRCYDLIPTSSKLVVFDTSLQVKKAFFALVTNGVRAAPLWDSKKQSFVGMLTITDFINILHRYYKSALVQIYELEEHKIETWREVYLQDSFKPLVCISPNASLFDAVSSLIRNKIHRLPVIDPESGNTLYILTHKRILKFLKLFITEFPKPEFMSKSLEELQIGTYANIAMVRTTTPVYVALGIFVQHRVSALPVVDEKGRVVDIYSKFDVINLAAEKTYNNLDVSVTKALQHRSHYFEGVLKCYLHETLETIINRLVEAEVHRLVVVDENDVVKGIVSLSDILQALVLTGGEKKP
T1 sequence (P54646 whole entry): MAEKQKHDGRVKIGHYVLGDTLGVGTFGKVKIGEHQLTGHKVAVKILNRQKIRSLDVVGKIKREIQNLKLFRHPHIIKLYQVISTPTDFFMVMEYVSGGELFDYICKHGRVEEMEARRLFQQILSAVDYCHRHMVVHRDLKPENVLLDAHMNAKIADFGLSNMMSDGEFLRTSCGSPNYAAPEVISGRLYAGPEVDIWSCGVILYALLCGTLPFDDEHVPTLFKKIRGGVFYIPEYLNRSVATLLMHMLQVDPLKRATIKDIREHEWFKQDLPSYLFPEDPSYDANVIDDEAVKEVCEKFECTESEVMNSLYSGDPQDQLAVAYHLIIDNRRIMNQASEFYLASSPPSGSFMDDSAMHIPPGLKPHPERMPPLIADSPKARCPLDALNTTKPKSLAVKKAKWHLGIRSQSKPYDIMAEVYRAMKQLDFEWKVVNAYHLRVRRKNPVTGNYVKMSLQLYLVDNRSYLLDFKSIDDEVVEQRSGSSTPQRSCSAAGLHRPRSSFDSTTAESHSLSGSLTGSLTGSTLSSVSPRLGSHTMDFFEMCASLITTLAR
T1 sequence (O43741 whole entry partner): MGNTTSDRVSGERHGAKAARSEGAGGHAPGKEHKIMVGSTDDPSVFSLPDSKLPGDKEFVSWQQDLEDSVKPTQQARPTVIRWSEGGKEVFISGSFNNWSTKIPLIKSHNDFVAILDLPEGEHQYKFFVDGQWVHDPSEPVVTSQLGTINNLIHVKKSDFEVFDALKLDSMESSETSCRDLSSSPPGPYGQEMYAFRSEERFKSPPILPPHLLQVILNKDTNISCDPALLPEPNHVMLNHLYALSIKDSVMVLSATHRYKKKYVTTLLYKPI
T2 sequence (P54619 whole entry): as the sequence (P54619 whole entry) above
T2 sequence (P54646 whole entry): as the sequence (P54646 whole entry) above
T2 sequence (O43741 whole entry partner): as the sequence (O43741 whole entry partner) above
T3 sequence (P54619 whole entry V276G/L277G): as the sequence (P54619 whole entry) above, with V276G, L277G counted along it
T3 sequence (P54646 whole entry): as the sequence (P54646 whole entry) above
T3 sequence (O43741 whole entry partner): as the sequence (O43741 whole entry partner) above
T4 sequence (P54619 whole entry I312G): as the sequence (P54619 whole entry) above, with I312G counted along it
T4 sequence (P54646 whole entry): as the sequence (P54646 whole entry) above
T4 sequence (O43741 whole entry partner): as the sequence (O43741 whole entry partner) above

Row | Compound | Activation (maximal) ([1]; 0.2 mM ATP) | pIC50 ([1]; 0.2 mM ATP) | maximal activation actually reached ([1]; 5 mM ATP) [fold] | Activation (extrapolated maximal) ([1]; 5.0 mM ATP) | pIC50 ([1]; 5.0 mM ATP) | IC50/EC50 ([1]; 5.0 mM ATP) | pEC50 ([1]; 5.0 mM ATP, read-out: EC50) | pEC50 ([1]; 5 mM ATP, read-out: EC50 for activation) | inactivation and dephosphorylation of AMPK by PPM1A in the presence of nucleotide [2] | protective effect of nucleotide against PPM1A in the mutant [3] | protective effect of nucleotide against PPM1A in the mutant [4] | IC50/EC50 ([1]; 0.2 mM ATP) | pEC50 ([1]; 0.2 mM ATP, read-out: EC50)
1 | Nc1ncnc2c1ncn2[C@@H]1O[C@H](COP(=O)(O)OP(=O)(O)O)[C@@H](O)[C@H]1O [ADP] | did not cause allosteric activation and none | 2.59 | 1.6 | 9.9 fold and 9.9 (2.8 -??) fold | 2.92 | 1.5 | 3.11 | 3.11 and 3.10 | greatly reduced | almost completely abolished | almost completely abolished |  | 
2 | Nc1ncnc2c1ncn2[C@@H]1O[C@H](COP(=O)(O)O)[C@@H](O)[C@H]1O [AMP] | 2.6 fold and 2.6 (2.5-2.6) fold | 2.59 |  | 3.0 fold and 3.0 (2.9-3.1) fold | 1.28 | 2700 | 4.72 |  | greatly reduced | almost completely abolished | almost completely abolished | 2600 | 6.00
